Data: ChEMBL document CHEMBL6177952, “Exploring chloro-isoxazole compounds inspired on tetrahydrofuran neolignans as promising antileishmanial agents” (Eur J Med Chem, 2025)
The source made the active and inactive calls. No cut-off for these calls is given here.

How the values were obtained:
Leishmania amazonensis [1] = assay: Antileishmanial activity against leishmania amazonensis IFLA/BR/1967/PH8 intracellular amastigote infected in mouse Peritoneal macrophage incubated for 24 hrs; type: functional, organism-based; conditions: IFLA/BR/1967/PH8, Peritoneal macrophage
Leishmania amazonensis [2] = assay: Antileishmanial activity against leishmania amazonensis infected in BALB/c mouse assessed as reduction in footpad swelling at 5 mg/kg, ILES measured at week 5; type: functional, organism-based; conditions: time 5.0 weeks
Leishmania amazonensis [3] = assay: Antileishmanial activity against leishmania amazonensis infected in BALB/c mouse assessed as reduction in […] at 5 mg/kg, ILES measured after 65 days post infection by limiting dilution assay; type: functional, organism-based; conditions: time 65.0 day
Mitochondrial membrane = assay: Induction of mitochondrial membrane potential in Leishmania amazonensis promastigotes at 38.1 uM measured at 72 hrs by flow cytometry analysis; type: cell membranes
[4] = Mutagenicity in Salmonella typhimurium TA102 assessed as number of revertant colonies per plate at 1500 microg/ml in presence of S9 fraction by Ames test; type: toxicity, subcellular; conditions: salmonella enterica subsp. enterica serovar typhimurium, dose 1500 µg/ml
[5] = Mutagenicity in Salmonella typhimurium TA98 assessed as number of revertant colonies per plate at 150 microg/ml by Ames test; type: toxicity; conditions: salmonella enterica subsp. enterica serovar typhimurium; dose 150 µg/ml
[6] = Mutagenicity in Salmonella typhimurium TA98 assessed as number of revertant colonies per plate at 5000 microg/ml by Ames test; type: toxicity; conditions: salmonella enterica subsp. enterica serovar typhimurium; dose 5000 µg/ml
[7] = Mutagenicity in Salmonella typhimurium TA102 assessed as number of revertant colonies per plate at 150 microg/ml by Ames test; type: toxicity; conditions: salmonella enterica subsp. enterica serovar typhimurium; dose 150 µg/ml
[8] = Mutagenicity in Salmonella typhimurium TA102 assessed as number of revertant colonies per plate at 500 microg/ml by Ames test; type: toxicity; conditions: salmonella enterica subsp. enterica serovar typhimurium; dose 500 µg/ml
[9] = Mutagenicity in Salmonella typhimurium TA102 assessed as number of revertant colonies per plate at 5000 microg/ml in presence of S9 fraction by Ames test; type: toxicity, subcellular; conditions: salmonella enterica subsp. enterica serovar typhimurium, dose 5000 µg/ml
Leishmania amazonensis [10] = assay: Antileishmanial activity against Leishmania amazonensis promastigotes assessed as necrotic parasites at 38.1 uM incubated for 24 hrs by Annexin V/7-AAD staining based flow cytometry analysis relative to control; type: functional
Leishmania amazonensis [11] = assay: Antileishmanial activity against Leishmania amazonensis promastigotes assessed as early apoptotic parasites at 38.1 uM incubated for 72 hrs by Annexin V/7-AAD staining based flow cytometry analysis relative to control; type: functional

IC50 (Leishmania amazonensis [1]): 2200 nM
Activity (Mitochondrial membrane): Active
Structure (SMILES): COc1cc(-c2cc(-c3ccc4c(c3)OCO4)on2)c(Cl)c(OC)c1OC
Activity (Leishmania amazonensis [2]): Active
Activity (Leishmania amazonensis [3]): Active
Activity [4]: 100 revertants/plate
revertant count [5]: 9.7 revertants/plate
revertant count [6]: 21.3 revertants/plate
Activity [7]: 142 revertants/plate
revertant count [8]: 161 revertants/plate
revertant count [9]: 100 revertants/plate
Activity (Leishmania amazonensis [10]): 0.3%
Activity (Leishmania amazonensis [11]): 2.4%
